Test results taken from patent US20230364032A1, “USE OF 2-HOBA TO TREAT ATHEROSCLEROSIS” (Vanderbilt University, priority 2020, published 2023).
“Also recorded” adds a separate entry of the source.

What was measured:
[1] = test system: Apoe−/− macrophage foam cells; assay: Capacity of HDL from treated mice to reduce macrophage cholesterol; format: cell-based, mouse; settings: for efficiency of HDL at reducing cholesterol stores in Apoe−/− macrophage foam cells: HDL isolated from treated Ldlr−/− mice, 25 μg protein/ml, 24 h
Procedure: FIGS. 7A-7G show the effects of 2-HOBA on MDA-HDL adducts and HDL function. (7A) The levels or MDA adducts were measured by ELISA in HDL isolated from Ldlr mice treated as described in FIG. 1. Data are presented as mean±SEM (N=8 pet group), *** p<0.001, One-way ANOVA with Bonferroni's post hoc test. (7B) Western blots of apoAl and MDA-apoAl in HDL isolated from plasma by immunoprecipitation using primary anti-apoAl antibody. Ldlf mice were treated as described In FIG. 1 and apoAl and MDA-apoAl from Ldlr mice consuming a chow diet are included f0t comparison. (7C) Quantitation using lmageJ software of the mean density ratio (arbitrary units) of MDA-apoAl to apoAl detected by Western blotting (7B). (7D The HDL was isolated from the plasma of Ld/r-mice consuming a western diet for 16 weeks and treated with 2-HOBA or 4-HOBA or vehicle. Cholesterol enriched macrophages were incubated for 24 h with HDL (25 μg protein/ml). and the % reduction in cellular cholesterol content measured. Data presented as mean±SEM. N=7 per group, *p<0.05.**p<0.01, One-way ANOVA with Bonferroni's post hoc test (7E) The MDA adducts were measured by ELISA in HDL isolated from control or FH subjects before and after LDL apheresis. N=7 or 8, ***p<0.001, One-way ANOVA with Bonferroni's post hoc test. (7F) The MDA-Lysyl crosslink content in HDL from control or FH subjects (n=6 per group), p=0.02, Mann-Whitney test (7G) The capacity of HDL from control or FH subjects pre and post LDL apheresis (n=7 per group) to reduce the cholesterol content of apoE macrophages.
HDL was isolated from mouse plasma using HDL Purification Kit (Cell BioLabs, Inc.) following the manufacturer's protocol. Briefly, apoB containing lipoproteins and HDL were sequentially precipitated with dextran sulfate. The HDL was then resuspended and washed. After removing the dextran sulfate, the HDL was dialyzed against PBS. […] Cellular cholesterol was measured before and after incubation with HDL using an enzymatic cholesterol assay as described^61.

[2] = Body weight, water intake, diet consumption, mortality; format: in vivo; settings: Ldlr−/− mice, western diet 16 weeks, 1 g/L; compared to vehicle or 4-HOBA
Procedure: The body weight (FIG. 8A), water intake (FIG. 8B), and diet consumption (FIG. 8C) were measured in the Ldlr^−/− mice consuming a Western diet for 16 weeks and treated with 1 g/L 2-HOBA, 4-HOBA, or vehicle. (FIG. 8D) The plasma was pooled from hypercholesterolemic Ldlr^−/− mice (4 mice/group) that were fasted for 6 hours. Fast performance liquid chromatography (FPLC) was performed using a Superose 6 column. Total cholesterol was measured by an enzymatic assay and the average is shown for two pooled plasma samples per group of mice.
Ldlr^−/− and WT on C57BL/6 background mice were obtained from the Jackson Laboratory. Animal protocols were performed according to the regulations of Vanderbilt University's Institutional Animal Care and Usage Committee. Mice were maintained on chow or a Western-type diet containing 21% milk fat and 0.15% cholesterol (Teklad). Eight week old, female Ldlr^−/− mice on a chow diet were pretreated with vehicle alone (Water) or containing either 1 g/L of 4-HOBA or 1 g/L of 2-HOBA. 4-HOBA (as hydrochloride salt) was synthesized as previously described^21. 2-HOBA (as the acetate salt, CAS 1206675-01-5) was manufactured by TSI Co., Ltd. (Missoula, MT) and obtained from Metabolic Technologies, Inc., Ames, IA^24. A commercial production lot was used (Lot 16120312), and the purity of the commercial lot was verified to be >99% via HPLC and NMR spectroscopy^24. […]

[3] = test system: MDA- and IsoLG-lysyl adducts; assay: Aorta dilysyl-MDA crosslinks and IsoLG-lysyl adducts by LC/MS/MS; format: in vivo, mouse; settings: Ldlr−/− mice
Procedure: Isolation and LC/MS measurement of isolevuglandin-lysyl-lactam (IsoLG-Lys) adducts from aorta of 2-HOBA and 4-HOBA treated Ldlr^−/− mice were performed using a Waters Xevo-TQ-Smicro triple quadrupole mass spectrometer as previously described^69.
Samples (around 1 mg of protein) were digested with proteases as previously described for lysyl-lactam adducts^70. Five nanograms of ^13C6-dilysyl-MDA crosslink standard were added to each cell sample and dilysyl-MDA crosslinks were purified as previously described^71. The dilysyl-MDA crosslink was quantified by isotopic dilution by LC-EST/MS/MS as previously described^71.

NCc1ccccc1O [2-HOBA, 2-hydroxybenzylamine]
capacity of mouse HDL to reduce macrophage cholesterol stores ([1]; HDL from treated Ldlr−/− mice): increased; also recorded: enhanced capacity
efficiency of HDL at reducing cholesterol stores in Apoe−/− macrophage foam cells ([1]; versus 4-HOBA treated mice): 1.7 fold
efficiency of HDL at reducing cholesterol stores in Apoe−/− macrophage foam cells ([1]; versus vehicle treated mice): 2.2 fold
body weight, water consumption, diet uptake [2]: did not affect; also recorded: does not impact
MDA and IsoLG adduct content of atherosclerotic lesions/aortas [3]: decreases; also recorded: markedly reduced
decrease of whole aorta IsoLG-lysyl adduct content ([3]; compared to 4-HOBA treatment): 23%
decrease of whole aorta MDA-lysyl adduct content ([3]; compared to 4-HOBA treatment): 59%
